# In ChEMBL document CHEMBL1201862, “PubChem BioAssay data set” (2004):
#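 Interpolation was linear, between the two tested concentrations surrounding the appropriate level; five concentrations were tested over 48 hours in 96-well plates. Here, GI50 denotes the concentration required for 50% inhibition of growth.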 The source made the active and inactive calls. Cut-off read from the data, not from the text of the source: active = GI50 up to about 1.1 µM and inactive = higher.
# How the values were obtained:
# Test in all cases: inhibition of tumour cell growth, NCI panel, 48 h
# [1] = system: A498
# [2] = system: EKVX
# [3] = system: MDA-MB-231
# [4] = system: NCI-H522
# [5] = system: MDA-MB-435
# [6] = system: DU-145
# [7] = system: SK-OV-3
# [8] = system: Malme-3M
# [9] = system: OVCAR-8
# [10] = system: HCT-116
# [11] = system: IGROV-1
# [12] = system: SW-620
# [13] = system: MCF7
# [14] = system: SN12C
# [15] = system: ACHN
# [16] = system: SK-MEL-2
# [17] = system: MDA-N
# [18] = system: SK-MEL-5
# [19] = system: SK-MEL-28
# [20] = system: MOLT-4
# [21] = system: RPMI-8226
# [22] = system: OVCAR-4
# [23] = system: LOX IMVI
# [24] = system: K562
# [25] = system: NCI-H23
# [26] = system: A549
# [27] = system: UO-31
# [28] = system: SF-539
# [29] = system: CAKI-1
# [30] = system: SF-295
# [31] = system: HCT-15
# [32] = system: SNB-75
# [33] = system: KM12
# [34] = system: M14
# [35] = system: UACC-62
# [36] = system: HCC 2998
# [37] = system: RXF 393
# [38] = system: U-251
# [39] = system: COLO 205
# [40] = system: PC-3
# [41] = system: SNB-19
# [42] = system: HOP-62
# [43] = system: UACC-257
# [44] = system: 786-0
# [45] = system: NCI/ADR-RES
# [46] = system: OVCAR-3
# [47] = system: NCI-H226
# [48] = system: TK-10
# [49] = system: CCRF-CEM
# [50] = system: HOP-92
# [51] = system: T47D
# [52] = system: NCI-H460
# [53] = system: Hs-578T
# [54] = system: SR
# [55] = system: OVCAR-5
# [56] = system: HT-29
smiles,measurement,setting,value
CN(C)C(=O)N1N[C@H](c2ccccc2)[C@@H]1c1ccccc1,GI50,[1],> 100 µM (inactive)
same,GI50,[2],> 100 µM (inactive)
same,GI50,[3],> 100 µM (inactive)
same,GI50,[4],> 100 µM (inactive)
same,GI50,[5],> 100 µM (inactive)
same,GI50,[6],> 100 µM (inactive)
same,GI50,[7],> 100 µM (inactive)
same,GI50,[8],> 100 µM (inactive)
same,GI50,[9],> 100 µM (inactive)
same,GI50,[10],> 100 µM (inactive)
same,GI50,[11],> 100 µM (inactive)
same,GI50,[12],> 100 µM (inactive)
same,GI50,[13],> 100 µM (inactive)
same,GI50,[14],> 100 µM (inactive)
same,GI50,[15],> 100 µM (inactive)
same,GI50,[16],> 100 µM (inactive)
same,GI50,[17],> 100 µM (inactive)
same,GI50,[18],> 100 µM (inactive)
same,GI50,[19],> 100 µM (inactive)
same,GI50,[20],> 100 µM (inactive)
same,GI50,[21],> 100 µM (inactive)
same,GI50,[22],> 100 µM (inactive)
same,GI50,[23],> 100 µM (inactive)
same,GI50,[24],> 100 µM (inactive)
same,GI50,[25],> 100 µM (inactive)
same,GI50,[26],> 100 µM (inactive)
same,GI50,[27],> 100 µM (inactive)
same,GI50,[28],> 100 µM (inactive)
same,GI50,[29],> 100 µM (inactive)
same,GI50,[30],72.3 µM (inactive)
same,GI50,[31],> 100 µM
same,GI50,[32],> 100 µM (inactive)
same,GI50,[33],> 100 µM (inactive)
same,GI50,[34],> 100 µM (inactive)
same,GI50,[35],> 100 µM (inactive)
same,GI50,[36],> 100 µM (inactive)
same,GI50,[37],13.5 µM (inactive)
same,GI50,[38],> 100 µM (inactive)
same,GI50,[39],> 100 µM (inactive)
same,GI50,[40],48 µM (inactive)
same,GI50,[41],> 100 µM (inactive)
same,GI50,[42],> 100 µM (inactive)
same,GI50,[43],> 100 µM (inactive)
same,GI50,[44],> 100 µM (inactive)
same,GI50,[45],> 100 µM (inactive)
same,GI50,[46],> 100 µM (inactive)
same,GI50,[47],> 100 µM (inactive)
same,GI50,[48],> 100 µM (inactive)
same,GI50,[49],> 100 µM (inactive)
same,GI50,[50],> 100 µM (inactive)
same,GI50,[51],> 100 µM (inactive)
O=C1c2scc(-c3ccc(Cl)cc3)c2-n2cccc21,GI50,[1],1.11 µM (active)
same,GI50,[2],2.47 µM (inactive)
same,GI50,[3],14 µM (inactive)
same,GI50,[4],2.98 µM (inactive)
same,GI50,[5],8.04 µM (inactive)
same,GI50,[6],> 100 µM (inactive)
same,GI50,[7],> 100 µM (inactive)
same,GI50,[8],> 100 µM (inactive)
same,GI50,[11],3.17 µM (inactive)
same,GI50,[12],> 100 µM (inactive)
same,GI50,[52],> 100 µM (inactive)
same,GI50,[15],> 100 µM (inactive)
same,GI50,[16],> 100 µM (inactive)
same,GI50,[17],8.65 µM (inactive)
same,GI50,[18],> 100 µM (inactive)
same,GI50,[19],> 100 µM (inactive)
same,GI50,[20],73.3 µM (inactive)
same,GI50,[21],> 100 µM (inactive)
same,GI50,[23],> 100 µM (inactive)
same,GI50,[24],3.93 µM (inactive)
same,GI50,[26],> 100 µM (inactive)
same,GI50,[53],1.95 µM (inactive)
same,GI50,[30],> 100 µM (inactive)
same,GI50,[32],2.4 µM (inactive)
same,GI50,[54],2.84 µM (inactive)
same,GI50,[33],5.25 µM (inactive)
same,GI50,[34],50.5 µM (inactive)
same,GI50,[35],7.13 µM (inactive)
same,GI50,[36],> 100 µM (inactive)
same,GI50,[37],> 100 µM (inactive)
same,GI50,[39],> 100 µM (inactive)
same,GI50,[40],> 100 µM (inactive)
same,GI50,[43],> 100 µM (inactive)
same,GI50,[46],> 100 µM (inactive)
same,GI50,[49],> 100 µM (inactive)
same,GI50,[55],> 100 µM (inactive)
same,GI50,[51],> 100 µM (inactive)
CC1OC(O[C@H]2/C=C/C=C/C=C/C=C/C=C/C=C/C=C/[C@H](C)[C@@H](O)[C@@H](C)[C@H](C)OC(=O)C[C@H](O)C[C@H](O)CC[C@@H](O)[C@H](O)C[C@H](O)C[C@]3(O)C[C@H](O)[C@@H](C(=O)O)[C@H](C2)O3)C(O)C(N)C1O (some centres not stated),GI50,[4],8.87 µM (inactive)
same,GI50,[7],37.3 µM (inactive)
same,GI50,[10],24.3 µM (inactive)
same,GI50,[11],10 µM (inactive)
same,GI50,[12],11.6 µM (inactive)
same,GI50,[13],20.5 µM (inactive)
same,GI50,[16],36.7 µM (inactive)
same,GI50,[17],7.69 µM (inactive)
same,GI50,[22],18.2 µM (inactive)
same,GI50,[24],60.4 µM (inactive)
same,GI50,[27],1.79 µM (inactive)
same,GI50,[53],9.25 µM (inactive)
same,GI50,[54],2.35 µM (inactive)
same,GI50,[33],20.5 µM (inactive)
same,GI50,[36],28.5 µM (inactive)
same,GI50,[37],5.64 µM (inactive)
same,GI50,[39],24.3 µM (inactive)
same,GI50,[40],16.3 µM (inactive)
same,GI50,[44],4.4 µM (inactive)
same,GI50,[46],15.9 µM (inactive)
same,GI50,[47],> 100 µM (inactive)
same,GI50,[56],21.8 µM (inactive)
same,GI50,[49],6.15 µM (inactive)
same,GI50,[50],32.2 µM (inactive)
